# Measured values: publication PMC9848259 (Journal of Enzyme Inhibition and Medicinal Chemistry, 2023)
# Assay: in vitro
# Assay type: cell-based
# Details: human, human hepatic stellate cells (HSCs), read-out: cell viability (hepatotoxicity, MTT)
# Protocol: Human hepatic stellate cells (HSCs, Sciencell) were grown in the Stellate Cell Medium (Sciencell) supplemented with 2% Foetal Bovine Serum (Sciencell), 1% Stellate Cell Growth Supplement (Sciencell) and 1% penicillin/streptomycin solution (Sciencell). The cells were cultured in the incubator at 37 °C and 5% CO2. To start the experiment, the cells were seeded at a density of 5 × 10^3 cells/well in 96-well plates and incubated (37 °C, 5% CO2) for 24 h. After incubation, medium was removed from the wells and the cells were exposed to 100 µl of the compound over a range of concentrations (from 0.1 to 10 µM) or 100 µl of culture medium alone (blank control). The cells were then further incubated for 24 h. After this time, the medium was removed, the cells were washed with PBS and 50 µl of MTT solution (0.75 mg/ml) was added to each well. The plates were incubated in the dark at 37 °C for another two hours. The MTT solution was then removed from the wells and 100 µl of DMSO was added. The plates were incubated at room temperature for 10 min and then 5 µl of Sorensen Buffer was added to each well. The plates were swayed and the absorbance at 570 nm was measured with a microplate reader (Synergy H1, BioTek, Winooski, VT, USA). The cell viability was expressed as a percentage of the control values (blank control)[40]^,[46]^,[47].
structure (smiles),measurement,setting,value
O=C(NCCCCCCNc1c2c(nc3ccccc13)CCC2)c1cc(Cl)cc(Cl)c1 [Compound 3e],"viability at 24 h, 0.1 µM",0.1 µM,102%
same,"viability at 24 h, 1 µM",1 µM,100%
same,"viability at 24 h, 10 µM",10 µM,97.3%
